The target of this test is T1, human sweet receptor (T1R2 and T1R3) (Homo sapiens, UniProt Q7RTX0+Q8TE23).
T1 construct: expressed in transfected cells; host or cells: HEK293 cells co-expressing Galpha15
T1 sequence (Q8TE23 20-839): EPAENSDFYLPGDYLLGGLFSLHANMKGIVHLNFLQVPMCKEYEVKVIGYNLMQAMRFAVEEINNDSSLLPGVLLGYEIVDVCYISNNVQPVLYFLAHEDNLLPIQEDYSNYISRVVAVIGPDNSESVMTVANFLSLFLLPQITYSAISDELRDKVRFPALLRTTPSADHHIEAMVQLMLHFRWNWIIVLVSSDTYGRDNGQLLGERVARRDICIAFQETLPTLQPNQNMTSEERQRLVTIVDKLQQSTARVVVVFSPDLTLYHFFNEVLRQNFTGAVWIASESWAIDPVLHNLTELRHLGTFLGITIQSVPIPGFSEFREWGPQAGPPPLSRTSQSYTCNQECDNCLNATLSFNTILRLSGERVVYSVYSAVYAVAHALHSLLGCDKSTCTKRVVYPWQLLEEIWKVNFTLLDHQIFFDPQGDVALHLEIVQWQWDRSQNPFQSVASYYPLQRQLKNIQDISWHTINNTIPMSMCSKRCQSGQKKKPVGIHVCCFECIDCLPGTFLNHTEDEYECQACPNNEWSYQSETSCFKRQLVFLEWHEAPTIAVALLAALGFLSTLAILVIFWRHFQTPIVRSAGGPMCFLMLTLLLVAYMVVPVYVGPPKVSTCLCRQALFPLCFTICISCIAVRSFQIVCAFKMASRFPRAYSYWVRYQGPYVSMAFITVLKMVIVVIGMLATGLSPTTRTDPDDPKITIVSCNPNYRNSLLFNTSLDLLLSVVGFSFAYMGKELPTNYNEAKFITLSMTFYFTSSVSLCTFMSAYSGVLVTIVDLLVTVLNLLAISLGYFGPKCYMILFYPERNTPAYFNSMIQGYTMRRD
T1 sequence (Q7RTX0 21-852): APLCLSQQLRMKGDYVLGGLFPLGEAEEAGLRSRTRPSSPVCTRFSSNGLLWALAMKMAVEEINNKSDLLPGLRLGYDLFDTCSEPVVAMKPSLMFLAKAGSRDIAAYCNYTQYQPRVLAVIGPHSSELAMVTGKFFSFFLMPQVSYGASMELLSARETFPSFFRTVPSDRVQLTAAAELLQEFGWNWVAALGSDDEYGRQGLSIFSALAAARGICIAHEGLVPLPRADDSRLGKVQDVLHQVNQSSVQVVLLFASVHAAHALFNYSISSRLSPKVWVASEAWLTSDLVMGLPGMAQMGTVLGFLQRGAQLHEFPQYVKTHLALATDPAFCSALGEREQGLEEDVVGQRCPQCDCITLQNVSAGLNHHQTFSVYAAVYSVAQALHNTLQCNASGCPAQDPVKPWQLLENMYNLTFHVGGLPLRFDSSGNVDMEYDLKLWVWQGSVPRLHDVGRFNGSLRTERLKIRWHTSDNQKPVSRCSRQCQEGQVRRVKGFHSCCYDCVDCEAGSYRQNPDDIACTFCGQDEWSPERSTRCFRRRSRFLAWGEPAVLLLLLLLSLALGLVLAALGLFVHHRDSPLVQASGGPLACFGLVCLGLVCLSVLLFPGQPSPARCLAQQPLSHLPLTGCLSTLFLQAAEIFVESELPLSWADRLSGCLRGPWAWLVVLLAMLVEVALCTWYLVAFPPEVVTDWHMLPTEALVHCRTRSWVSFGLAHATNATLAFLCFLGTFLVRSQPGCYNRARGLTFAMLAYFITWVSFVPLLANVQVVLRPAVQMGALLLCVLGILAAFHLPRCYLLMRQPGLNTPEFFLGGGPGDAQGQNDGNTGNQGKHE
Description: Calcium imaging (Fluo3AM/FLIPR) sweet receptor enhancer assay in hT1R2/hT1R3-HEK293 Galpha15 cells, with pre-incubation step. The test is classed as cell-based. Particulars: read-out: potency of Sucralose (dose-response). As to the method: In the subject assays the receptor or cells expressing same will be placed in a suitable environment that facilitates the receptor or cells to be used in the particular assay. For instance, in the exemplified calcium imaging assays cells which express hT1R2/hT1R3-HEK293 G[…]15 cells were seeded in 384-well-clear bottom plates (Fisher) at a density of ˜50,000 cells/well and grown overnight at 37 degrees C. However, it is anticipated that these cell density conditions and/or cell culture devices potentially may be altered.
On the day of the experiment, cells were loaded with a commercially available calcium indicator dye Fluo3AM (2 uM) (Invitrogen) in D-PBS (Invitrogen) using a Multidrop (Titertek). (Again while Fluo3AM is exemplified it is anticipated that other known and available calcium indicators can be substituted therefore). […] After 30 minutes of rest time at room temperature, Fluo3AM-loaded cell plate, a compound plate and a sweetener plate were loaded into a Fluorometric Imaging Plate Reader (FLIPR, Molecular Devices). […] Imaging was initiated with the acquisition of the baseline fluorescence for a period of 7 to 10 seconds, and then cells were stimulated on line with addition of 25 µl/well of the compound plate (pre-incubation step). […]

Among the data in US20080305500A1, “NOVEL CELL-BASED ASSAYS FOR IDENTIFYING ENHANCERS OR INHIBITORS OF T1R TASTE RECEPTORS (T1R2/T1R3 SWEET) AND UMAMI (T1R1/T1R3 UMAMI) TASTE RECEPTORS” (Senomyx, Inc., priority 2007, published 2008) are EC50 values, retold here.

Like-named read-outs stand apart in the source and are kept apart here.

Regarding `OC[C@H]1O[C@H](O[C@]2(CCl)O[C@H](CCl)[C@@H](O)[C@@H]2O)[C@H](O)[C@@H](O)[C@H]1Cl` [Sucralose], the EC50 came to 11 µM (cells pre-incubated with S2423 (50 uM or 25 uM final)) and 53 µM (without S2423).
